Data: US8921267B2, “Safening 6-(trisubstituted phenyl)-4-amino-2-pyridinecarboxylate herbicide injury on cereal crops” (Dow AgroSciences LLC, priority 2008, dated 2014)

Assays:
[1] = system: wheat (Triticum aestivum L; TRZAS); assay: Postemergence herbicidal safening, greenhouse, visual injury: wheat; format: in vivo
Method: (§1) Evaluation of Postemergence Herbicidal Safening in Cereal Crops
(§2) Seeds of the desired test plant species were planted in Sun Gro MetroMix® 306 planting mixture, which typically has a pH of 6.0 to 6.8 and an organic matter content of about 30 percent, in plastic pots with a surface area of 103.2 square centimeters (cm^2). When required to ensure good germination and healthy plants, a fungicide treatment and/or other chemical or physical treatment was applied. The plants were grown for 7-36 days (d) in a greenhouse with an approximate 14-hour (h) photoperiod which was maintained at about 18° C. during the day and 17° C. during the night. Nutrients and water were added on a regular basis and supplemental lighting was provided with overhead metal halide 1000-Watt lamps as necessary. The plants were employed for testing when they reached the second or third true leaf stage.
(§3) Weighed amounts of esters (methyl) or salts (TEA [triethylammonium], K [potassium]) of 4-amino-3-chloro-6-(4-chloro-2-fluoro-3-methoxyphenyl)pyridine-2-carboxylic acid (Compound 1) were dissolved in a volume of 97:3 volume/volume (v/v) acetone/dimethylsulfoxide (DMSO) to obtain stock solutions. […] The concentrated stock solutions were diluted with an aqueous mixture of 1.5% v/v of Agri-dex crop oil concentrate to provide the appropriate application rates. Compound requirements are based upon a 12 mL application volume at a rate of 187 liters per hectare (L/ha). Stocks solutions of the safeners were prepared following the same procedure. Spray solutions of the safeners and experimental compound mixtures were prepared by adding the stock solutions to the appropriate amount of dilution solution to form a 12 mL spray solution with active ingredients in two-way combinations. Formulated compounds were applied to the plant material with an overhead Mandel track sprayer equipped with 8002E nozzles calibrated to deliver 187 L/ha over an application area of 0.503 square meters (m^2) at a spray height of 18 inches (43 centimeters (cm)) above average plant canopy. Control plants were sprayed in the same manner with the solvent blank.
(§4) The treated plants and control plants were placed in a greenhouse as described above and watered by sub-irrigation to prevent wash-off of the test compounds. After 20-22 d, the condition of the test plants as compared with that of the control plants was determined visually and scored on a scale of 0 to 100 percent where 0 corresponds to no injury and 100 corresponds to complete kill.
(§5) Colby's equation was used to determine the herbicidal effects expected from the mixtures (Colby, S. R. Calculation of the synergistic and antagonistic response of herbicide combinations. Weeds 1967, 15, 20-22.).
(§6) The following equation was used to calculate the expected activity of mixtures containing two active ingredients, A and B: Expected=A+B−(A×B/100)
(§7) A=observed efficacy of active ingredient A at the same concentration as used in the mixture.
(§8) B=observed efficacy of active ingredient B at the same concentration as used in the mixture.

[2] = system: wheat (Triticum aestivum L; TRZAW); assay: Postemergence herbicidal safening, greenhouse, visual injury: wheat (TRZAW); format: in vivo
Method: as §1, §2, §3, §4, §5, §6, §7, §8

[3] = system: barley (Hordeum vulgare L; HORVS); assay: Postemergence herbicidal safening, greenhouse, visual injury: barley; format: in vivo
Method: as §1, §2, §3, §4, §5, §6, §7, §8

[4] = system: purple deadnettle (Lamium purpureum L; LAMPU); assay: Postemergence herbicidal activity, greenhouse, visual injury: purple deadnettle; format: in vivo; parameters: key: visual injury, 0–100%: 0 = no injury, 100 = complete kill
Method: as §1, §2, §3, §4, §5, §6, §7, §8

[5] = system: corn poppy (Papaver rhoeas L; PAPRH); assay: Postemergence herbicidal activity, greenhouse, visual injury: corn poppy; format: in vivo
Method: as §1, §2, §3, §4, §5, §6, §7, §8

barley (HORVW) = assay: Postemergence herbicidal safening, greenhouse, visual injury: barley (HORVW)
[6] = system: durum wheat (Triticum durum L; TRZDU); assay: Postemergence herbicidal safening, greenhouse, visual injury: durum wheat; format: in vivo
Method: as §1, §2, §3, §4, §5, §6, §7, §8

[7] = system: bird's-eye speedwell (Veronica persica L; VERPE); assay: Postemergence herbicidal activity, greenhouse, visual injury: bird's-eye speedwell; format: in vivo; parameters: key: visual injury, 0–100%: 0 = no injury, 100 = complete kill
Method: as §1, §2, §3, §4, §5, §6, §7, §8

[8] = system: wild buckwheat (Polygonum convolvulus L; POLCO); assay: Postemergence herbicidal activity, greenhouse, visual injury: wild buckwheat; format: in vivo
Method: as §1, §2, §3, §4, §5, §6, §7, §8

[9] = system: cleavers (Galium aparine L; GALAP); assay: Postemergence herbicidal activity, greenhouse, visual injury: cleavers; format: in vivo; parameters: key: visual injury, 0–100%: 0 = no injury, 100 = complete kill
Method: as §1, §2, §3, §4, §5, §6, §7, §8

[10] = system: wild pansy (Viola tricolor L; VIOTR); assay: Postemergence herbicidal activity, greenhouse, visual injury: wild pansy; format: in vivo; parameters: key: visual injury, 0–100%: 0 = no injury, 100 = complete kill
Method: as §1, §2, §3, §4, §5, §6, §7, §8

[11] = system: Russian thistle (Salsola iberica L; SASKR); assay: Postemergence herbicidal activity, greenhouse, visual injury: Russian thistle; format: in vivo; parameters: key: visual injury, 0–100%: 0 = no injury, 100 = complete kill
Method: as §1, §2, §3, §4, §5, §6, §7, §8

[12] = system: chickweed (Stellaria media L; STEME); assay: Postemergence herbicidal activity, greenhouse, visual injury: chickweed; format: in vivo; parameters: key: visual injury, 0–100%: 0 = no injury, 100 = complete kill
Method: as §1, §2, §3, §4, §5, §6, §7, §8

[13] = Compound 1 Methyl ester 35 g/ha alone

O=C(O)C1=NOC(c2ccccc2)(c2ccccc2)C1 [Isoxadifen]
0: TRZAS Ob (Observed values) ([1]; safener 4.4 g/ha alone) | TRZAS Ob (Observed values) ([1]; safener 8.8 g/ha alone) | TRZAS Ob (Observed values) ([1]; safener 17.5 g/ha alone) | TRZAS Ob (Observed values) ([1]; safener 35 g/ha alone) | HORVS Ob (Observed values) ([3]; safener 4.4 g/ha alone) | HORVS Ob (Observed values) ([3]; safener 8.8 g/ha alone) | HORVS Ob (Observed values) ([3]; safener 17.5 g/ha alone) | HORVS Ob (Observed values) ([3]; safener 35 g/ha alone) | LAMPU Ob (Observed values) ([4]; safener 4.4 g/ha alone) | LAMPU Ob (Observed values) ([4]; safener 8.8 g/ha alone) | LAMPU Ob (Observed values) ([4]; safener 17.5 g/ha alone) | LAMPU Ob (Observed values) ([4]; safener 35 g/ha alone) | PAPRH Ob (Observed values) ([5]; safener 4.4 g/ha alone) | PAPRH Ob (Observed values) ([5]; safener 8.8 g/ha alone) | PAPRH Ob (Observed values) ([5]; safener 17.5 g/ha alone) | PAPRH Ob (Observed values) ([5]; safener 35 g/ha alone)
0%: TRZAW Ob (Observed values) ([2]; safener 4.4 g/ha alone) | TRZAW Ob (Observed values) ([2]; safener 8.8 g/ha alone) | TRZAW Ob (Observed values) ([2]; safener 17.5 g/ha alone) | TRZAW Ob (Observed values) ([2]; safener 35 g/ha alone) | HORVW Ob (Observed values) (barley (HORVW); safener 4.4 g/ha alone) | HORVW Ob (Observed values) (barley (HORVW); safener 8.8 g/ha alone) | HORVW Ob (Observed values) (barley (HORVW); safener 17.5 g/ha alone) | HORVW Ob (Observed values) (barley (HORVW); safener 35 g/ha alone) | TRZDU Ob (Observed values) ([6]; safener 4.4 g/ha alone) | TRZDU Ob (Observed values) ([6]; safener 8.8 g/ha alone) | TRZDU Ob (Observed values) ([6]; safener 17.5 g/ha alone) | TRZDU Ob (Observed values) ([6]; safener 35 g/ha alone)

CC1(C)CN2C(=O)CCC2(C)N(C(=O)C(Cl)Cl)C1 (racemic) [Dicyclonon, (RS)-1-dichloroacetyl-3,3,8a-trimethylperhydropyrrolo[1,2]pyrimidin-6-one, reference compound]
0%: VERPE Ob ([7]; applied alone at 17.5 g/ha) | VERPE Ob ([7]; applied alone at 35 g/ha) | VERPE Ob ([7]; applied alone at 70 g/ha) | VERPE Ob ([7]; applied alone at 140 g/ha) | TRZAS Ob ([1]; applied alone at 17.5 g/ha) | TRZAS Ob ([1]; applied alone at 35 g/ha) | TRZAS Ob ([1]; applied alone at 70 g/ha) | TRZAS Ob ([1]; applied alone at 140 g/ha) | HORVS Ob ([3]; applied alone at 17.5 g/ha) | HORVS Ob ([3]; applied alone at 35 g/ha) | HORVS Ob ([3]; applied alone at 70 g/ha) | HORVS Ob ([3]; applied alone at 140 g/ha) | POLCO Ob ([8]; applied alone at 17.5 g/ha) | POLCO Ob ([8]; applied alone at 35 g/ha) | POLCO Ob ([8]; applied alone at 70 g/ha) | POLCO Ob ([8]; applied alone at 140 g/ha) | GALAP Ob ([9]; applied alone at 17.5 g/ha) | GALAP Ob ([9]; applied alone at 35 g/ha) | GALAP Ob ([9]; applied alone at 70 g/ha) | GALAP Ob ([9]; applied alone at 140 g/ha) | VIOTR Ob ([10]; applied alone at 17.5 g/ha) | VIOTR Ob ([10]; applied alone at 35 g/ha) | VIOTR Ob ([10]; applied alone at 70 g/ha) | VIOTR Ob ([10]; applied alone at 140 g/ha) | PAPRH Ob ([5]; applied alone at 17.5 g/ha) | PAPRH Ob ([5]; applied alone at 35 g/ha) | PAPRH Ob ([5]; applied alone at 70 g/ha) | PAPRH Ob ([5]; applied alone at 140 g/ha) | SASKR Ob ([11]; applied alone at 17.5 g/ha) | SASKR Ob ([11]; applied alone at 35 g/ha) | SASKR Ob ([11]; applied alone at 70 g/ha) | SASKR Ob ([11]; applied alone at 140 g/ha) | STEME Ob ([12]; applied alone at 17.5 g/ha) | STEME Ob ([12]; applied alone at 35 g/ha) | STEME Ob ([12]; applied alone at 70 g/ha) | STEME Ob ([12]; applied alone at 140 g/ha) | HORVW Ob (Observed values) (barley (HORVW); safener 4.4 g/ha alone) | HORVW Ob (Observed values) (barley (HORVW); safener 8.8 g/ha alone) | HORVW Ob (Observed values) (barley (HORVW); safener 17.5 g/ha alone) | HORVW Ob (Observed values) (barley (HORVW); safener 35 g/ha alone)
0: LAMPU Ob (Observed values) ([4]; safener 4.4 g/ha alone) | LAMPU Ob (Observed values) ([4]; safener 8.8 g/ha alone) | LAMPU Ob (Observed values) ([4]; safener 17.5 g/ha alone) | LAMPU Ob (Observed values) ([4]; safener 35 g/ha alone) | PAPRH Ob (Observed values) ([5]; safener 4.4 g/ha alone) | PAPRH Ob (Observed values) ([5]; safener 8.8 g/ha alone) | PAPRH Ob (Observed values) ([5]; safener 17.5 g/ha alone) | PAPRH Ob (Observed values) ([5]; safener 35 g/ha alone)

O=C(C(Cl)Cl)N1CCOC12CCCCC2 [AD-67]
0: LAMPU Ob (Observed values) ([4]; safener 4.4 g/ha alone) | LAMPU Ob (Observed values) ([4]; safener 8.8 g/ha alone) | LAMPU Ob (Observed values) ([4]; safener 17.5 g/ha alone) | LAMPU Ob (Observed values) ([4]; safener 35 g/ha alone) | PAPRH Ob (Observed values) ([5]; safener 4.4 g/ha alone) | PAPRH Ob (Observed values) ([5]; safener 8.8 g/ha alone) | PAPRH Ob (Observed values) ([5]; safener 17.5 g/ha alone) | PAPRH Ob (Observed values) ([5]; safener 35 g/ha alone)
0%: TRZAW Ob (Observed values) ([2]; safener 4.4 g/ha alone) | TRZAW Ob (Observed values) ([2]; safener 8.8 g/ha alone) | TRZAW Ob (Observed values) ([2]; safener 17.5 g/ha alone) | TRZAW Ob (Observed values) ([2]; safener 35 g/ha alone) | HORVW Ob (Observed values) (barley (HORVW); safener 4.4 g/ha alone) | HORVW Ob (Observed values) (barley (HORVW); safener 8.8 g/ha alone) | HORVW Ob (Observed values) (barley (HORVW); safener 17.5 g/ha alone) | HORVW Ob (Observed values) (barley (HORVW); safener 35 g/ha alone) | TRZDU Ob (Observed values) ([6]; safener 4.4 g/ha alone) | TRZDU Ob (Observed values) ([6]; safener 8.8 g/ha alone) | TRZDU Ob (Observed values) ([6]; safener 17.5 g/ha alone) | TRZDU Ob (Observed values) ([6]; safener 35 g/ha alone)

COC(=O)c1nc(-c2ccc(Cl)c(OC)c2F)cc(N)c1Cl [1 Methyl ester]
50: TRZAS Ob (Observed values) [1, 13]
33: HORVS Ob (Observed values) [3, 13]
97: LAMPU Ob (Observed values) [4, 13] | PAPRH Ob (Observed values) [5, 13]
50%: HORVW Ob (Observed values) (barley (HORVW); [13])
35%: TRZAW Ob (Observed values) [2, 13]
42%: TRZDU Ob (Observed values) [6, 13]
